# In PubChem BioAssay AID2060897 (Molecular Pharmacology Branch, DTP, NCI, 2025):
# System: 966289-007-R4-J1-PDC complex spheroid viability
# Assay: Anticancer human tumor 966289-007-R4-J1-PDC patient-derived pancreatic adenocarcinoma cell line growth inhibition [RAS]
# Settings: for IC50: curve of first compound; for viability, T/C: stronger effect = lower value
# In short: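 Agents were tested in combination matrices in half-log decrements from a top concentration at or near clinical Cmax (10 microM if undetermined). Targets were multi-cell spheroids of tumour lines plus HUVEC and MSC stromal cells.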
# [1] = second compound 0.00316 µM, first compound 0.000949 µM
# [2] = second compound 0.00316 µM, first compound 0.003 µM
# [3] = second compound 0.00316 µM, first compound 0.00949 µM
# [4] = second compound 0.00316 µM, first compound 0.03 µM
# [5] = second compound 0.00316 µM, first compound 0.0949 µM
# [6] = second compound 0.00316 µM, first compound 0.3 µM
# [7] = second compound 0.01 µM, first compound 0.000949 µM
# [8] = second compound 0.01 µM, first compound 0.003 µM
# [9] = second compound 0.01 µM, first compound 0.00949 µM
# [10] = second compound 0.01 µM, first compound 0.03 µM
# [11] = second compound 0.01 µM, first compound 0.0949 µM
# [12] = second compound 0.01 µM, first compound 0.3 µM
# [13] = second compound 0.0316 µM, first compound 0.000949 µM
# [14] = second compound 0.0316 µM, first compound 0.003 µM
# [15] = second compound 0.0316 µM, first compound 0.00949 µM
# [16] = second compound 0.0316 µM, first compound 0.03 µM
# [17] = second compound 0.0316 µM, first compound 0.0949 µM
# [18] = second compound 0.0316 µM, first compound 0.3 µM
# [19] = second compound 0.1 µM, first compound 0.000949 µM
# [20] = second compound 0.1 µM, first compound 0.003 µM
# [21] = second compound 0.1 µM, first compound 0.00949 µM
# [22] = second compound 0.1 µM, first compound 0.03 µM
# [23] = second compound 0.1 µM, first compound 0.0949 µM
# [24] = second compound 0.1 µM, first compound 0.3 µM
# [25] = second compound 0.316 µM, first compound 0.000949 µM
# [26] = second compound 0.316 µM, first compound 0.003 µM
# [27] = second compound 0.316 µM, first compound 0.00949 µM
# [28] = second compound 0.316 µM, first compound 0.03 µM
# [29] = second compound 0.316 µM, first compound 0.0949 µM
# [30] = second compound 0.316 µM, first compound 0.3 µM
# [31] = second compound 1 µM, first compound 0.000949 µM
# [32] = second compound 1 µM, first compound 0.003 µM
# [33] = second compound 1 µM, first compound 0.00949 µM
# [34] = second compound 1 µM, first compound 0.03 µM
# [35] = second compound 1 µM, first compound 0.0949 µM
# [36] = second compound 1 µM, first compound 0.3 µM
# 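Note: spheroids exposed to agents for one week before readout.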
# 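Throughout, for viability, T/C: percent viability relative to DMSO vehicle control wells as 100%.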
compound,measurement,setting,value
CC1(C)CCC(Nc2ncc(C(F)(F)F)c(-c3c[nH]c4c(P(C)(C)=O)c(C#N)ccc34)n2)CN1 (centres undefined) + C=CC(=O)N1CCN(c2nc(OCC3CCCN3C)nc3c(F)c(-c4nc(N)cc(C)c4C(F)(F)F)c(Cl)cc23)C(C)C1,IC50,second compound 0.00316 µM,10.2 nM
same,IC50,second compound 0.01 µM,12.4 nM
same,IC50,second compound 0.0316 µM,6.79 nM
same,IC50,second compound 0.1 µM,13.1 nM
same,IC50,second compound 0.316 µM,12.2 nM
same,IC50,second compound 1 µM,13.8 nM
same,"viability, T/C",[1],103%
same,"viability, T/C",[2],113%
same,"viability, T/C",[3],52.6%
same,"viability, T/C",[4],14%
same,"viability, T/C",[5],9.67%
same,"viability, T/C",[6],8.68%
same,"viability, T/C",[7],102%
same,"viability, T/C",[8],124%
same,"viability, T/C",[9],61.4%
same,"viability, T/C",[10],16.4%
same,"viability, T/C",[11],8.51%
same,"viability, T/C",[12],9.49%
same,"viability, T/C",[13],97.4%
same,"viability, T/C",[14],99.6%
same,"viability, T/C",[15],30.1%
same,"viability, T/C",[16],15.9%
same,"viability, T/C",[17],10.5%
same,"viability, T/C",[18],9.47%
same,"viability, T/C",[19],118%
same,"viability, T/C",[20],117%
same,"viability, T/C",[21],64%
same,"viability, T/C",[22],13.9%
same,"viability, T/C",[23],9.91%
same,"viability, T/C",[24],8.45%
same,"viability, T/C",[25],103%
same,"viability, T/C",[26],108%
same,"viability, T/C",[27],59.7%
same,"viability, T/C",[28],15.8%
same,"viability, T/C",[29],8.13%
same,"viability, T/C",[30],8.27%
same,"viability, T/C",[31],113%
same,"viability, T/C",[32],118%
same,"viability, T/C",[33],67.2%
same,"viability, T/C",[34],15.6%
same,"viability, T/C",[35],9.94%
same,"viability, T/C",[36],7.89%
CCc1c2c(nc3ccc(O)cc13)-c1cc3c(c(=O)n1C2)COC(=O)[C@]3(O)CC + C=CC(=O)N1CCN(c2nc(OCC3CCCN3C)nc3c(F)c(-c4nc(N)cc(C)c4C(F)(F)F)c(Cl)cc23)C(C)C1,IC50,second compound 0.00316 µM,1.5 nM
same,IC50,second compound 0.01 µM,1.38 nM
same,IC50,second compound 0.0316 µM,1.34 nM
same,IC50,second compound 0.1 µM,1.22 nM
same,IC50,second compound 0.316 µM,1.31 nM
same,IC50,second compound 1 µM,1.12 nM
same,"viability, T/C",[1],82%
same,"viability, T/C",[2],1.8%
same,"viability, T/C",[3],0.98%
same,"viability, T/C",[4],0.95%
same,"viability, T/C",[5],0.87%
same,"viability, T/C",[6],0.85%
same,"viability, T/C",[7],72.8%
same,"viability, T/C",[8],2.38%
same,"viability, T/C",[9],0.97%
same,"viability, T/C",[10],1.12%
same,"viability, T/C",[11],0.92%
same,"viability, T/C",[12],0.91%
same,"viability, T/C",[13],70.5%
same,"viability, T/C",[14],2.51%
same,"viability, T/C",[15],1.14%
same,"viability, T/C",[16],0.91%
same,"viability, T/C",[17],0.87%
same,"viability, T/C",[18],0.86%
same,"viability, T/C",[19],63.4%
same,"viability, T/C",[20],2.05%
same,"viability, T/C",[21],1.09%
same,"viability, T/C",[22],0.89%
same,"viability, T/C",[23],0.99%
same,"viability, T/C",[24],0.86%
same,"viability, T/C",[25],68.3%
same,"viability, T/C",[26],2.24%
same,"viability, T/C",[27],1.14%
same,"viability, T/C",[28],1.03%
same,"viability, T/C",[29],0.87%
same,"viability, T/C",[30],1.11%
same,"viability, T/C",[31],58.1%
same,"viability, T/C",[32],1.43%
same,"viability, T/C",[33],1.03%
same,"viability, T/C",[34],0.98%
same,"viability, T/C",[35],0.91%
same,"viability, T/C",[36],0.97%
